Measurements from US12070457B2, “Substituted pyridines, pyridazines, pyrimidines, and 1,2,3-triazines as bruton's tyrosine kinase inhibitors” (HUTCHISON MEDIPHARMA LIMITED, priority 2020, dated 2024).

How the values were obtained:
[1] = Stability test in liver microsomes (mouse); type: in vitro ADME; conditions: 1 μM compound; for stability in mouse liver microsomes compared with reference GDC-0853: 0.5 mg/mL liver microsomes, 30 minutes incubation; for MLM, percentage of remaining compound after 30 minutes of incubation: mouse liver microsomes
Excerpt: (§1) Example 5 Stability Test in Liver Microsomes
(§2) Both male CD-1 mouse pooled liver microsomes and male SD rat pooled liver microsomes were purchased from BioreclamationIVT Corporation, USA.
(§3) Phenacetin, glucose-6-phosphate dehydrogenase (G-6-PDH) and nicotinamide adenine dinucleotide phosphate (NADP) were all purchased from Sigma-Aldrich Corporation, USA. Glucose-6-phosphate (G-6-P) was purchased from Shanghai Eybridge Chemical Technology Co., Ltd.
(§4) Ten mM test compound stock solution: a certain amount of test compound was weighed, and dissolved with an appropriate volume of DMSO to prepare a stock solution with a concentration of 10 mM for use.
(§5) Reaction stopping solution: an appropriate amount of internal standard compound phenacetin was dissolved in acetonitrile to prepare a reaction stopping solution with a concentration of 1000 ng/mL for use at room temperature.
(§6) The test compound stock solution was diluted with an organic solvent (usually a mixture of acetonitrile, methanol and water with various ratios, depending on the solubility of the compound, if necessary, 1 N hydrochloric acid or 1 N sodium hydroxide would be added to facilitate solubilization) to the 0.1 mM (the final concentration of the compound in the reaction system was 1 μM) and the concentration percentage of the organic solvents in the incubation system no more than 1% (wherein the percentage of DMSO was required to be no more than 0.1%). An appropriate amount of 100 mM NADP, 500 mM G-6-P and 100 Unit/mL G-6-PDH were mixed and diluted with ultrapure water (the final system contains 1 mM NADP, 5 mM G-6-P and 1 Unit/mL G-6-PDH), pre-incubated in a 37° C. water bath for 10 minutes and then placed on ice for use as a NADPH regeneration solution. 20 mg/mL liver microsomes solution and 200 mM phosphate buffer was mixed, and diluted with ultrapure water to give a liver microsomes solution containing 2.5 mg/mL liver microsomes (the final concentration of the reaction system is 0.5 mg/mL) and 50 mM phosphate buffer. The diluted liver microsomes solution was mixed with 0.1 mM compound solution, a mixture of 100 mM EDTA, 300 mM MgCl2 solution, 200 mM phosphate buffer (the final system was 3 mM MgCl2, 1 mM EDTA and 50 mM phosphate buffer) and water in an appropriate volume was added. Finally, the NADPH regeneration solution was added, then the reaction solution was placed in a 37° C. water bath to start the reaction (the reaction time was 30 minutes), and the reaction was stopped by adding the ice-cold acetonitrile reaction stopping solution containing the internal standard. The 0-minute sample was not incubated in a 37° C. water bath, and its difference from the 30-minute sample further lies in that the ice-cold acetonitrile reaction stopping solution containing the internal standard was added first, and then the NADPH regeneration solution was added. The sample added with the reaction stopping internal standard solution was vortexed and mixed well, and then centrifuged at 4400 rpm for 10 minutes. The supernatant was taken and diluted ten times with 50% methanol for LC-MS/MS analysis.
(§7) LC-MS/MS was used to determine the concentration of the compound in the sample. The percentage of the remaining compound after 30 minutes of incubation comparing with that in the 0-minute sample was calculated using the peak area ratio of the compound to the internal standard as an indicator, to evaluate the metabolic stability of the compound.
(§8) Instrument: API4500, API4000 or LTQ Mass Spectrometer; the liquid phase is UHPLC system (Shimadzu LC-30 AD, model Nexra X2) including liquid delivery unit, column thermostat, detector and autosampler; or Agilent 1200 Binary Pump series HPLC and CTC Autosampler.
(§9) Chromatographic column: Waters XSELECT Hss T3 C18 (2.5 μm, 2.1×50 mm) or […] (5 μm, 2.0×50 mm)
(§10) Mobile phase: • A: water with 0.1% FA (formic acid) (with or without 0.1% ACN (acetonitrile)) • B: acetonitrile with 0.1% FA (formic acid).

[2] = Stability test in liver microsomes (rat); type: in vitro ADME; conditions: 1 μM compound; for stability in rat liver microsomes compared with reference GDC-0853: 0.5 mg/mL liver microsomes, 30 minutes incubation; for RLM, percentage of remaining compound after 30 minutes of incubation: rat liver microsomes
Excerpt: as §1, §2, §3, §4, §5, §6, §7, §8, §9, §10

Row | MLM, percentage of remaining compound after 30 minutes of incubation [1] [%] | RLM, percentage of remaining compound after 30 minutes of incubation [2] [%] | SMILES | stability in mouse liver microsomes compared with reference GDC-0853 [1] | stability in rat liver microsomes compared with reference GDC-0853 [2]
1 | 83.4 | 91.8 | CC1CCc2cc3c(=O)n(-c4nccc(-c5cc(Nc6ccc(N7CCN(C8COC8)C[C@@H]7C)cn6)c(=O)n(C)c5)c4CO)ccn3c2C1 (mixture of isomers) [Compound 78] | better than that of the reference GDC-0853 | better than that of the reference GDC-0853
2 | 90.5 | 98.9 | C[C@@H]1CN(c2ccc(Nc3cc(-c4ccnc(-n5ccn6c7c(cc6c5=O)CCC7)c4CO)cn(C)c3=O)nc2)[C@@H](C)CN1C1COC1 [Compound 2, 2-(5-((5-((2S,5R)-2,5-dimethyl-4-(oxetan-3-yl)piperazin-1-yl)pyridin-2-yl)amino)-3′-(hydroxymethyl)-1-methyl-6-oxo-1,6-dihydro-[3,4′-bispyridin]-2′-yl)-7,8-dihydro-2H-cyclopenta[4,5]pyrrolo[1,2-α]pyrazin-1(6H)-one] | better than that of the reference GDC-0853 | better than that of the reference GDC-0853
3 | 95.7 | 89.5 | Cn1cc(-c2ccnc(-n3ccn4c5c(cc4c3=O)CC(C)(C)C5)c2CO)cc(Nc2ccc(N3CCN(C4COC4)CC3)cn2)c1=O [Compound 9] | better than that of the reference GDC-0853 | better than that of the reference GDC-0853
4 | 93.1 | 97.1 | C[C@H]1CN(C2COC2)CCN1c1cnc(Nc2cc(-c3ccnc(-n4ccn5c6c(cc5c4=O)CC(C)(C)C6)c3CO)cn(C)c2=O)nc1 [Compound 44] | better than that of the reference GDC-0853 | better than that of the reference GDC-0853
5 | 89.5 | 93.7 | C[C@H]1CN(C2COC2)CCN1c1ccc(Nc2cc(-c3ccnc(-n4ccn5c6c(cc5c4=O)CCC(F)(F)C6)c3CO)cn(C)c2=O)nc1 [Compound 56] | better than that of the reference GDC-0853 | better than that of the reference GDC-0853
6 | 97.1 | ~100 | C[C@H]1CN(C2COC2)CCN1c1ccc(Nc2cc(-c3ccnc(-n4ccn5c6c(cc5c4=O)CC(F)(F)CC6)c3CO)cn(C)c2=O)nc1 [Compound 58] | better than that of the reference GDC-0853 | better than that of the reference GDC-0853
7 | 85.8 | 89.6 | C[C@H]1CN(C2COC2)CCN1c1ccc(Nc2cc(-c3ccnc(-n4cnn5c6c(cc5c4=O)CC(C)(C)C6)c3CO)cn(C)c2=O)nc1 [Compound 63] | better than that of the reference GDC-0853 | better than that of the reference GDC-0853
8 | 95.6 | 92.1 | C[C@H]1CN(C2COC2)CCN1c1ccc(Nc2cc(-c3ccnc(-n4ccn5c6c(cc5c4=O)CCC6)c3CO)cn(C)c2=O)nc1 [Compound 64] | better than that of the reference GDC-0853 | better than that of the reference GDC-0853
9 | 97.5 | 87.7 | C[C@H]1CN(C2COC2)CCN1c1ccc(Nc2cc(-c3ccnc(-n4ccn5c(cc6ccccc65)c4=O)c3CO)cn(C)c2=O)nc1 [Compound 74] | better than that of the reference GDC-0853 | better than that of the reference GDC-0853
10 | 83.0 | 84.0 | C[C@H]1CN(C2COC2)CCN1c1ccc(Nc2cc(-c3ccnc(-n4ccn5c(cc6cc(F)ccc65)c4=O)c3CO)cn(C)c2=O)nc1 [Compound 75] | better than that of the reference GDC-0853 | better than that of the reference GDC-0853
11 | ~100 | ~100 | C[C@H]1CN(C2COC2)CCN1c1ccc(Nc2cc(-c3ccnc(-n4ncn5c6c(cc5c4=O)CC(C)(C)C6)c3CO)cn(C)c2=O)nc1 [Compound 79] | better than that of the reference GDC-0853 | better than that of the reference GDC-0853
